Article PMC10825183 (Nature Communications, 2024)
Several values for one entry are separate records, joined by “and”; a condition that tells them apart may be missing. Identical values can stand only once. Like-named read-outs stand apart in the source and are kept apart here.

Columns and labels:
human HCN2 CNBD ΔDE’ = target: T1, human HCN2 CNBD ΔDE’ (Homo sapiens, UniProt Q9UL51); test: Isothermal titration calorimetry (ITC), CNBD ΔDE’
T1 sequence (Q9UL51 521-672): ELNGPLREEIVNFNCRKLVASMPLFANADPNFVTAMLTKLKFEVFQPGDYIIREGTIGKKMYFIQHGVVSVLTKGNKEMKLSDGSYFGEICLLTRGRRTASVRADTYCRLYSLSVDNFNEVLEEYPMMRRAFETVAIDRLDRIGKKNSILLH

rbHCN4 full-length (FL) = target: T2, rbHCN4 full-length (FL) (Oryctolagus cuniculus, UniProt Q9TV66); test: Whole-cell patch clamp in HEK293T cells, HCN4 full length; assay type: cell-based, rabbit
T2 construct: The cDNA encoding the full-length rabbit HCN4 was previously cloned in pCI (Promega) mammalian expression vector; expressed in transfected cells; host or cells: HEK293T
T2 sequence (Q9TV66 1-1175): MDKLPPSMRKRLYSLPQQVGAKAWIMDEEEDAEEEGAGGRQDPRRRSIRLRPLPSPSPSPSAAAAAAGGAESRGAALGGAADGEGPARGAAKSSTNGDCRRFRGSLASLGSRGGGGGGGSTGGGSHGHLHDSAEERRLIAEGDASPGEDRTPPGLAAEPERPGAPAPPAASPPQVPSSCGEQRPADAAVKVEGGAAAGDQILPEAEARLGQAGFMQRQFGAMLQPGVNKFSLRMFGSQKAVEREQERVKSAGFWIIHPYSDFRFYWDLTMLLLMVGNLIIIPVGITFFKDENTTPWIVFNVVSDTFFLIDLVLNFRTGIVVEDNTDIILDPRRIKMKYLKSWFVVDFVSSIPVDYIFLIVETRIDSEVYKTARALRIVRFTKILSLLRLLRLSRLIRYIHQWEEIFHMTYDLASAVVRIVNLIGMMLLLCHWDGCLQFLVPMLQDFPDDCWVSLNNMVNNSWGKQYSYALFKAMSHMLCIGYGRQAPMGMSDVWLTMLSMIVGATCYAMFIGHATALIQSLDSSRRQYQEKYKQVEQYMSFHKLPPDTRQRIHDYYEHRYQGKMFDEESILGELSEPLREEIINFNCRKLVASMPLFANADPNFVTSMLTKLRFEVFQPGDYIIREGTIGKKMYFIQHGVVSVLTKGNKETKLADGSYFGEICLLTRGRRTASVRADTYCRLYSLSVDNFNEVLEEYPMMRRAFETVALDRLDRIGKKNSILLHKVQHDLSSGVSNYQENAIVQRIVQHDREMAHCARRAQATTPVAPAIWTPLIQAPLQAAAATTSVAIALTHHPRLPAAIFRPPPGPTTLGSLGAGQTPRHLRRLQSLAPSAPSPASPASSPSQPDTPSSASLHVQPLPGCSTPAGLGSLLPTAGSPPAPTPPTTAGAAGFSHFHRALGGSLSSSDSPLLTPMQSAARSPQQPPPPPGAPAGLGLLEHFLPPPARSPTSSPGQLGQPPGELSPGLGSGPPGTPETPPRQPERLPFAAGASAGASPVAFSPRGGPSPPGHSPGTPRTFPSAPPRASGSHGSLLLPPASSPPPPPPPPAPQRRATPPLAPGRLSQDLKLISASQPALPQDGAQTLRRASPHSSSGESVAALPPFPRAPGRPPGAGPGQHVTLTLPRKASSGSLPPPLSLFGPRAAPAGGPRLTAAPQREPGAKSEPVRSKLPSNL

human HCN2 CNBD ΔC-term = target: T3, human HCN2 CNBD ΔC-term (Homo sapiens, UniProt Q9UL51); test: Isothermal titration calorimetry (ITC), CNBD ΔC-term; settings: mean ± SEM, n = 3
T3 sequence (Q9UL51 521-706): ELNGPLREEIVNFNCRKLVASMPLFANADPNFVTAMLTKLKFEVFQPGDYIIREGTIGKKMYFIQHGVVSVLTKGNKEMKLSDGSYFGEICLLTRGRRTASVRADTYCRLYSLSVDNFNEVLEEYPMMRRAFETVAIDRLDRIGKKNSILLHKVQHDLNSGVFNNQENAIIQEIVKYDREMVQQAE

HCN4 = settings: cited from earlier work
hHCN2 CNBD D698A = hHCN2 CNBD D698A (Homo sapiens, UniProt Q9UL51, D698A); test: biochemical
Sequence of hHCN2 CNBD D698A (Q9UL51 521-706 D698A): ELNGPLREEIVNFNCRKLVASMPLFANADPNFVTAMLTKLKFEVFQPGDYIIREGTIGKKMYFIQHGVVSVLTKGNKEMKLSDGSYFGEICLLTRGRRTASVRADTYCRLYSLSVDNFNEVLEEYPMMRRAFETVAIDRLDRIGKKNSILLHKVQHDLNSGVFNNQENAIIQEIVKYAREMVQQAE

rbHCN4 ΔDE’ (1-723) = rbHCN4 ΔDE’ (1-723) (Oryctolagus cuniculus, UniProt Q9TV66)
rbHCN4 D750A = rbHCN4 D750A (Oryctolagus cuniculus, UniProt Q9TV66, D750A)
Sequence of rbHCN4 D750A (Q9TV66 whole entry D750A): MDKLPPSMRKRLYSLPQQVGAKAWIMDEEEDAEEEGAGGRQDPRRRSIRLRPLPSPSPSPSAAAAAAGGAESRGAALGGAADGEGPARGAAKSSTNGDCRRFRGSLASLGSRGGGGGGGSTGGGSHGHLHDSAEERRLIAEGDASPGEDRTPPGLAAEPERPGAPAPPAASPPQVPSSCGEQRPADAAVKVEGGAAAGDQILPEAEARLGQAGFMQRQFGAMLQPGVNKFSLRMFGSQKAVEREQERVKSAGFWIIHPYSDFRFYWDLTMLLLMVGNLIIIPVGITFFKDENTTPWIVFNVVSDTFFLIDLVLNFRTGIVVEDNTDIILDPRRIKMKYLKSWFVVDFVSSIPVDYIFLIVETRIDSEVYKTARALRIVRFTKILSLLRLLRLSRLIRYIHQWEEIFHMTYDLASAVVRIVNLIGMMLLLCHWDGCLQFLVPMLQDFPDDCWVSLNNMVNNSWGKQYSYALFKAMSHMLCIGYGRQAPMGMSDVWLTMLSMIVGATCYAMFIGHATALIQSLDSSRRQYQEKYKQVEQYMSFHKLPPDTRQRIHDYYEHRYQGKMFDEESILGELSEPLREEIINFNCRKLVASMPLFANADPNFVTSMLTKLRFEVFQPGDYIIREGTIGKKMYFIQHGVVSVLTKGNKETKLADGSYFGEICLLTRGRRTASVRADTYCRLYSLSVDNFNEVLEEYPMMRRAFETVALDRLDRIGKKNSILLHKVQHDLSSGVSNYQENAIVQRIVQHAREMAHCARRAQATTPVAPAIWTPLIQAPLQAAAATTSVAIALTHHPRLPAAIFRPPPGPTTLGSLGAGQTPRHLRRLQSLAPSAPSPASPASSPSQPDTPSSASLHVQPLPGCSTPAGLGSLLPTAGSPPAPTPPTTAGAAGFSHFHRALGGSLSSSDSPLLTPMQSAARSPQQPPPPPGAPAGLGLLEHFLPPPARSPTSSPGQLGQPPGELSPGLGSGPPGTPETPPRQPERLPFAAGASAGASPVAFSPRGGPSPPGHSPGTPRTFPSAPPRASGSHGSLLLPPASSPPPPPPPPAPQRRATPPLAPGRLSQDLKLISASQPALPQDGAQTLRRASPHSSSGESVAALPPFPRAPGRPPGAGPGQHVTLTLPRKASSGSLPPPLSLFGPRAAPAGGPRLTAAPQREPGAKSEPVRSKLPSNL

[1] = 5 µM cAMP in pipette, mean ± SEM
[2] = Hill fit of shift in V1/2 vs cAMP concentration

Nc1ncnc2c1ncn2[C@@H]1O[C@@H]2COP(=O)(O)O[C@H]2[C@H]1O [cAMP, Adenosine 3′,5′-cyclic monophosphate]
Kd (human HCN2 CNBD ΔDE’; cAMP titrated into 20 µM CNBD, 25 °C, mean ± SEM, n = 3): 1.2 ± 0.03 µM | Kd (human HCN2 CNBD ΔDE’; representative sample (Fig. 2d), cAMP titrant, single ITC experiment): 1.2 µM | stoichiometry (N) (human HCN2 CNBD ΔDE’; cAMP titrant, mean ± SEM, n = 3): 0.8 ± 0.1 | V1/2 with cAMP (rbHCN4 full-length (FL); 1 µM cAMP in pipette, mean ± SEM): -89.9 ± 1.6 mV | k (inverse slope factor) with cAMP (rbHCN4 full-length (FL); 1 µM cAMP, mean ± SEM): 11.7 ± 1 mV | V1/2 with cAMP (rbHCN4 full-length (FL); [1]): -87.5 ± 0.7 mV | k (inverse slope factor) with cAMP (rbHCN4 full-length (FL); 5 µM cAMP, mean ± SEM): 10.6 ± 0.4 mV | V1/2 + cAMP (rbHCN4 full-length (FL); 15 µM cAMP in pipette, mean ± SEM): -79.3 ± 0.9 mV | k + cAMP (rbHCN4 full-length (FL); 15 µM cAMP, mean ± SEM): 10.2 ± 1 mV | Hill coefficient (nH) (rbHCN4 full-length (FL); [2]): 0.9 | Kd (human HCN2 CNBD ΔC-term; KD, cAMP titrated into 20 µM CNBD, 25 °C): 0.3 ± 0.01 µM | stoichiometry (N) (human HCN2 CNBD ΔC-term; cAMP titrant): 0.4 ± 0.1 | EC50 (HCN4; ref Baruscotti et al, 2017): 1.67 µM | EC50 (HCN4; ref Milanesi et al, 2006): 1.53 µM | EC50 (HCN4; ref Moller et al 2014): 0.82 µM | Kd (hHCN2 CNBD D698A; KD of individual experiments (source data Fig. 4e), cAMP titrant, unit inferred): 1.7 µM and 1.6 µM and 1.3 µM | Kd (hHCN2 CNBD D698A; KD, cAMP titrated into 20 µM CNBD, 25 °C, mean ± SEM, n = 3): 1.5 ± 0.1 µM | Kd (hHCN2 CNBD D698A; KD, representative sample (Fig. 4d), cAMP titrant, single ITC experiment): 1 µM | V1/2 with cAMP (rbHCN4 ΔDE’ (1-723); [1]): -95.5 ± 0.8 mV | k (inverse slope factor) with cAMP (rbHCN4 ΔDE’ (1-723); 5 µM cAMP, mean ± SEM): 8.4 ± 0.1 mV | Hill coefficient (nH) (rbHCN4 ΔDE’ (1-723); [2]): 1 | V1/2 with cAMP (rbHCN4 D750A; [1]): -96 ±1.7 mV | k (inverse slope factor) with cAMP (rbHCN4 D750A; 5 µM cAMP, mean ± SEM): 9 ± 0.5 mV | Hill coefficient (nH) (rbHCN4 D750A; [2]): 0.8
